Species: Rattus norvegicus
Assay: Open TG-GATES - Regimen: Daily Repeat
Format: toxicity, organism-based, Sprague-Dawley
Parameters: regimen Daily Repeat, gender Male, age 6 weeks
Conditions: in vivo, po, 15 mg/kg, route gavage, dose level Low; for APTT / Bas / Eos / Fbg / Hb / Ht / Lym / MCH / MCHC / MCV / Mono / Neu / PT / Plat / RBC / Ret / WBC: tissue Blood; for KIDNEY_L / KIDNEY_R / KIDNEY_TOTAL: tissue Kidney; for LIVER: tissue Liver; for A/G / ALP / ALT / AST / BUN / CRE / Ca / Cl / DBIL / GLC / IP / K / LDH / Na / PL / RALB / TBIL / TC / TG / TP / gamma-GTP: tissue Plasma

SMILES: CC(C)C(=O)Nc1ccc([N+](=O)[O-])c(C(F)(F)F)c1 [FLUTAMIDE]
- TERMINAL_BW (72 h, time 3 day): 223.1 g
- APTT (72 h, time 3 day): 18.7 s
- Bas (72 h, time 3 day): 0%
- Eos (72 h, time 3 day): 1%
- Fbg (72 h, time 3 day): 224.2 mg/dL
- Hb (72 h, time 3 day): 14 g/dL
- Ht (72 h, time 3 day): 41.8%
- Lym (72 h, time 3 day): 75.2%
- MCH (72 h, time 3 day): 21.6 pg
- MCHC (72 h, time 3 day): 33.6%
- MCV (72 h, time 3 day): 64.4 fL
- Mono (72 h, time 3 day): 3.2%
- Neu (72 h, time 3 day): 19.4%
- PT (72 h, time 3 day): 12.3 s
- Plat (72 h, time 3 day): 119.4 x10_4/uL
- RBC (72 h, time 3 day): 649.4 x10_4/ul
- Ret (72 h, time 3 day): 5.7%
- WBC (72 h, time 3 day): 84.8 x10_2/uL
- KIDNEY_L (72 h, time 3 day): 1 g
- KIDNEY_R (72 h, time 3 day): 1 g
- KIDNEY_TOTAL (72 h, time 3 day): 1.9 g
- LIVER (72 h, time 3 day): 11.2 g
- A/G (72 h, time 3 day): 1.8
- ALP (72 h, time 3 day): 847 IU/L
- ALT (72 h, time 3 day): 40 IU/L
- AST (72 h, time 3 day): 66.8 IU/L
- BUN (72 h, time 3 day): 14.4 mg/dL
- CRE (72 h, time 3 day): 0.4 mg/dL
- Ca (72 h, time 3 day): 10.9 mg/dL
- Cl (72 h, time 3 day): 104.2 meq/L
- DBIL (72 h, time 3 day): 0.1 mg/dL
- GLC (72 h, time 3 day): 216.8 mg/dL
- IP (72 h, time 3 day): 7.1 mg/dL
- K (72 h, time 3 day): 3.9 meq/L
- LDH (72 h, time 3 day): 177.6 IU/L
- Na (72 h, time 3 day): 140.8 meq/L
- PL (72 h, time 3 day): 157.4 mg/dL
- RALB (72 h, time 3 day): 3.6 g/dL
- TBIL (72 h, time 3 day): 0.2 mg/dL
- TC (72 h, time 3 day): 86.6 mg/dL
- TG (72 h, time 3 day): 86.2 mg/dL
- TP (72 h, time 3 day): 5.6 g/dL
- gamma-GTP (72 h, time 3 day): 1.2 IU/L
- TERMINAL_BW ([…], time 7 day): 248.2 g
- TERMINAL_BW ([…], time 14 day): 294.4 g
- TERMINAL_BW ([…], time 28 day): 340.6 g
- APTT ([…], time 7 day): 19.1 s
- Bas ([…], time 7 day): 0%
- Eos ([…], time 7 day): 1%
- Fbg ([…], time 7 day): 217.8 mg/dL
- Hb ([…], time 7 day): 13.6 g/dL
- Ht ([…], time 7 day): 40.3%
- Lym ([…], time 7 day): 84.6%
- MCH ([…], time 7 day): 20.8 pg
- MCHC ([…], time 7 day): 33.7%
- MCV ([…], time 7 day): 61.6 fL
- Mono ([…], time 7 day): 2%
- Neu ([…], time 7 day): 12.2%
- PT ([…], time 7 day): 12.3 s
- Plat ([…], time 7 day): 124.4 x10_4/uL
- RBC ([…], time 7 day): 654.8 x10_4/ul
- Ret ([…], time 7 day): 4.6%
- WBC ([…], time 7 day): 149.8 x10_2/uL
- APTT ([…], time 14 day): 20.6 s
- Bas ([…], time 14 day): 0%
- Eos ([…], time 14 day): 0.6%
- Fbg ([…], time 14 day): 228.4 mg/dL
- Hb ([…], time 14 day): 14.3 g/dL
- Ht ([…], time 14 day): 41.8%
- Lym ([…], time 14 day): 82.4%
- MCH ([…], time 14 day): 20.9 pg
- MCHC ([…], time 14 day): 34.2%
- MCV ([…], time 14 day): 61.1 fL
- Mono ([…], time 14 day): 2.4%
- Neu ([…], time 14 day): 13.4%
- PT ([…], time 14 day): 12.3 s
- Plat ([…], time 14 day): 104.8 x10_4/uL
- RBC ([…], time 14 day): 684.6 x10_4/ul
- Ret ([…], time 14 day): 3.8%
- WBC ([…], time 14 day): 112.5 x10_2/uL
- APTT ([…], time 28 day): 19.6 s
- Bas ([…], time 28 day): 0%
- Eos ([…], time 28 day): 1.2%
- Fbg ([…], time 28 day): 229.2 mg/dL
- Hb ([…], time 28 day): 15.1 g/dL
- Ht ([…], time 28 day): 42.7%
- Lym ([…], time 28 day): 82%
- MCH ([…], time 28 day): 20 pg
- MCHC ([…], time 28 day): 35.4%
- MCV ([…], time 28 day): 56.4 fL
- Mono ([…], time 28 day): 2.2%
- Neu ([…], time 28 day): 13.6%
- PT ([…], time 28 day): 12.4 s
- Plat ([…], time 28 day): 106.7 x10_4/uL
- RBC ([…], time 28 day): 758.8 x10_4/ul
- Ret ([…], time 28 day): 2.1%
- WBC ([…], time 28 day): 99.2 x10_2/uL
- KIDNEY_L ([…], time 7 day): 1.1 g
- KIDNEY_R ([…], time 7 day): 1.1 g
- KIDNEY_TOTAL ([…], time 7 day): 2.1 g
- KIDNEY_L ([…], time 14 day): 1.2 g
- KIDNEY_R ([…], time 14 day): 1.2 g
- KIDNEY_TOTAL ([…], time 14 day): 2.3 g
- KIDNEY_L ([…], time 28 day): 1.3 g
- KIDNEY_R ([…], time 28 day): 1.2 g
- KIDNEY_TOTAL ([…], time 28 day): 2.5 g
- LIVER ([…], time 7 day): 12.1 g
- LIVER ([…], time 14 day): 13.5 g
- LIVER ([…], time 28 day): 13.8 g
- A/G ([…], time 7 day): 1.5
- ALP ([…], time 7 day): 979.6 IU/L
- ALT ([…], time 7 day): 37.6 IU/L
- AST ([…], time 7 day): 62.6 IU/L
- BUN ([…], time 7 day): 15.8 mg/dL
- CRE ([…], time 7 day): 0.5 mg/dL
- Ca ([…], time 7 day): 10.7 mg/dL
- Cl ([…], time 7 day): 104.2 meq/L
- DBIL ([…], time 7 day): 0.088 mg/dL
- GLC ([…], time 7 day): 214.2 mg/dL
- IP ([…], time 7 day): 7.4 mg/dL
- K ([…], time 7 day): 4.1 meq/L
- LDH ([…], time 7 day): 195.6 IU/L
- Na ([…], time 7 day): 140.6 meq/L
- PL ([…], time 7 day): 145 mg/dL
- RALB ([…], time 7 day): 3.5 g/dL
- TBIL ([…], time 7 day): 0.1 mg/dL
- TC ([…], time 7 day): 74.2 mg/dL
- TG ([…], time 7 day): 83.2 mg/dL
- TP ([…], time 7 day): 5.8 g/dL
- gamma-GTP ([…], time 7 day): 1.2 IU/L
- A/G ([…], time 14 day): 1.5
- ALP ([…], time 14 day): 728 IU/L
- ALT ([…], time 14 day): 33.4 IU/L
- AST ([…], time 14 day): 57.2 IU/L
- BUN ([…], time 14 day): 12.8 mg/dL
- CRE ([…], time 14 day): 0.5 mg/dL
- Ca ([…], time 14 day): 10.7 mg/dL
- Cl ([…], time 14 day): 104 meq/L
- DBIL ([…], time 14 day): 0.09 mg/dL
- GLC ([…], time 14 day): 200.4 mg/dL
- IP ([…], time 14 day): 6.3 mg/dL
- K ([…], time 14 day): 3.9 meq/L
- LDH ([…], time 14 day): 137.8 IU/L
- Na ([…], time 14 day): 141.2 meq/L
- PL ([…], time 14 day): 149 mg/dL
- RALB ([…], time 14 day): 3.4 g/dL
- TBIL ([…], time 14 day): 0.1 mg/dL
- TC ([…], time 14 day): 77.6 mg/dL
- TG ([…], time 14 day): 96.4 mg/dL
- TP ([…], time 14 day): 5.7 g/dL
- gamma-GTP ([…], time 14 day): 0.6 IU/L
- A/G ([…], time 28 day): 1.4
- ALP ([…], time 28 day): 460.2 IU/L
- ALT ([…], time 28 day): 34 IU/L
- AST ([…], time 28 day): 54.4 IU/L
- BUN ([…], time 28 day): 16.8 mg/dL
- CRE ([…], time 28 day): 0.5 mg/dL
- Ca ([…], time 28 day): 10.3 mg/dL
- Cl ([…], time 28 day): 103.6 meq/L
- DBIL ([…], time 28 day): 0.07 mg/dL
- GLC ([…], time 28 day): 226.2 mg/dL
- IP ([…], time 28 day): 6.1 mg/dL
- K ([…], time 28 day): 3.4 meq/L
- LDH ([…], time 28 day): 126.8 IU/L
- Na ([…], time 28 day): 141.4 meq/L
- PL ([…], time 28 day): 147 mg/dL
- RALB ([…], time 28 day): 3.6 g/dL
- TBIL ([…], time 28 day): 0.1 mg/dL
- TC ([…], time 28 day): 83.4 mg/dL
- TG ([…], time 28 day): 51.2 mg/dL
- TP ([…], time 28 day): 6.2 g/dL
- gamma-GTP ([…], time 28 day): 0.4 IU/L

Source: ChEMBL document CHEMBL3885861, “Open TG-GATES”
